Earlier results as cited in paper PMC13005129 (Biochemistry, 2025).
Starred links: 1 amine or outer side, 2 acyl side, 3 side chain; linkers in the order of their positions; H or OH if unused. Positions of bridges follow the written chain, without caps; N, C: chain ends. Non-standard residues stand in square brackets, D forms with d. Residues, ends and D or L forms follow the SMILES beside them. *: point of attachment. Leu(3R-OH,Nα-propionyl) = CCC(=O)N[C@H](C(=O)*)[C@H](O)C(C)C; X1 = CC(C)[C@@H](O[*:3])[C@H](N[*:1])C(=O)[*:2]; NMeT = CN[C@H](C(=O)O)[C@@H](C)O; dPhLac = O=C(O)[C@H](O)Cc1ccccc1; NMeA = CN[C@@H](C)C(=O)O; NMeDha = C=C(NC)C(=O)O

Key:
[1] = test system: M3Rs expressed by immortalized human airway smooth muscle (ASM) cells
Gq/11 = conditions: cultured cells

| Structure (SMILES) | change in [Ca2+]i on M3R activation [1] | block of M3R-mediated increases in [Ca2+]i (Gq/11) |
| --- | --- | --- |
| CC(=O)OC(C)C[N+](C)(C)C (centres unmarked) [methacholine] | leads to an increase in [Ca^2+]i |  |
| C=C1C(=O)N[C@@H](C)C(=O)N(C)[C@@H](C)C(=O)N[C@@H]([C@H](OC(=O)[C@@H](NC(=O)CC)[C@H](O)C(C)C)C(C)C)C(=O)N(C)[C@@H]([C@@H](C)OC)C(=O)O[C@H](C(C)C)[C@H](NC(C)=O)C(=O)O[C@H](Cc2ccccc2)C(=O)N1C [FR900359] (Ac-[X1][dPhLac][NMeDha]A[NMeA][X1](Leu(3R-OH,Nα-propionyl))[NMeT](Me); ester 1-C) |  | can be effectively blocked |
